The values that follow come from patent US20230102223A1, “PHARMACEUTICAL COMPOSITIONS WITH ANTIFLAVIVIRAL ACTIVITY” (HEALTH RESEARCH, INC., priority 2016, published 2023).

The target of data set [1] is NS2B-NS3 interactions (Nluc-E66stop/GCN) (Dengue virus type 2, UniProt P29990). Description: biochemical. The class given is binding, DENV2.
Data set [2] concerns DENV2. As to conditions: DENV2; Table 1.
Data set [3] concerns the target DENV2 His-NS2B/His-MBP-NS3 protease (Dengue virus type 2, UniProt P29990). Description: NS2B/NS3 protease inhibition assay. The class given is biochemical.
A short description of data set [4]: Cytotoxicity, MTT or WST-8 cell proliferation assay. Conditions: human, A549 cells. (Formazan colour is commonly taken as a measure of viable cells.)
In data set [5] the test system is DENV2. Description: microbe, parasite or virus in culture. Conditions: Dengue virus.
Another data set relates to A549 cells. Description: Cytotoxicity, MTT or WST-8 cell proliferation assay. Conditions: Table 3.
In data set [6] the test system is ZIKV (Puerto Rico strain PRVABC59). Description: Viral titer reduction assay in A549 cells, ZIKV. The class given is cell-based, Zika virus. As to conditions: for EC50 / EC90: Zika virus, A549.
The test system of another data set is JEV. Description: microbe, parasite or virus in culture. The class given is cell-based, Japanese encephalitis virus. As to conditions: Japanese encephalitis virus, A549; JEV.
Data set [7] deals with refolded His-NS3 protease domain (Dengue virus type 2, UniProt P29990). As to the kind of experiment: Surface plasmon resonance (SPR). It is filed as binding. (In general: In SPR one partner is held on a chip, and binding of the other changes the refractive index at the surface.)
Sequence of refolded His-NS3 protease domain (P29990 1476-1653 limits assumed): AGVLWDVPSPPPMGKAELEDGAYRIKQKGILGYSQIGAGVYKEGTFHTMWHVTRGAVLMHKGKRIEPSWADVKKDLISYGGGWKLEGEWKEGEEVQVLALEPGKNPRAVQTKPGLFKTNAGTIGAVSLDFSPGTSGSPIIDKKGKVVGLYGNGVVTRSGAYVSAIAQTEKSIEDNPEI
The target in data set [8] is ZIKV GST-NS3 protease domain / FLAG-tagged ZIKV NS2B (Zika virus, UniProt Q32ZE1). As to the kind of experiment: Competitive GST pull-down assay. Conditions: pre-incubation with GST-NS3 beads; dose-dependent. The class given is binding. Here is the method: GST-NS3 or the GST-tag (10 μg) was immobilized on Glutathione sepharose-4B affinity beads (GE HealthCare). FLAG-tagged NS2B (10 μg) was incubated with the beads for 2 hours, and subjected to WB, using anti-FLAG (Genscript) and anti-GST antibodies (GE Healthcare). […] The assay was performed the same as in FIG. 32A, except that 2-fold dilution series of drugs were incubated with the GST-NS3 beads overnight prior to incubation with the FLAG-NS2B. […] The binding of NS2B to NS3 in the absence of each drag (DMSO control) was set as 100%. The relative binding of NS2B to NS3 in the presence of each drug was normalized to the DMSO control.
Sequence of ZIKV GST-NS3 protease domain / FLAG-tagged ZIKV NS2B (Q32ZE1 1499-1676): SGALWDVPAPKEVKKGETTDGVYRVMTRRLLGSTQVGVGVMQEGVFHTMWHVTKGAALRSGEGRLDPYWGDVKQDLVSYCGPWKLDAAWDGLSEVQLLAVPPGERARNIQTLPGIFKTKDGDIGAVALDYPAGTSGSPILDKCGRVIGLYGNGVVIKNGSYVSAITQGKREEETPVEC

Another data set deals with ZIKV NS3 expression. Description: Western blot of viral protein expression. The class given is cell-based. As to conditions: 48 hrs; dose-dependent. Here is the method:
The ability of compounds to inhibit viral protein expression was also tested by WB, using GTX133309 ZIKV α-NS3 antibody (GeneTex, Inc.).
Lower panel, NS3 expression normalized to the GAPDH loading control.
For orientation: Immunoblotting shows a protein as a band on a membrane.

Another data set deals with DENV2 His-MBP-NS3 (Dengue virus type 2, UniProt P29990). Description: Protein thermal shift assay (PTSA). The class given is binding. As to conditions: compound 4.8 μM, protein 2.5 μM. Here is the method:
PTSA was conducted using an Applied Biosystem 7500 Fast Real-Time PCR System (ThermoFisher Scientific) from 25 to 80° C. The DENV2 His-MBP-NS3 (final concentration of 2.5 μM in 1× PBS) was mixed with each compound to attain a 4.8 μM final concentration in 1.6% DMSO in the MicroAmp® Fast Optical 96-Well Reaction Plate (ThermoFisher Scientific). Thermal denaturation was monitored using SYPRO Orange (Life Technologies) according to manufacturer's manual. The denaturation of the proteins was monitored by following the increase of the fluorescence emitted by the probe that binds exposed hydrophobic regions of the denatured protein. The melting temperature (Tm) was calculated as the mid-log of the transition phase from the native to the denatured protein, using a Derivative model using the Protein Thermal Shift™ Software v1.0 (ThermoFisher Scientific). The reference unfolding temperature of proteins in 1.6% DMSO (Tm-DMSO) was subtracted from the values in the presence of each compounds (Tm-comp) to obtain thermal shifts, ΔTm=Tm-comp−Tm-DMSO. Compounds were considered to be binders when ΔTm>0.5° C.

The next data set relates to YFV. As to the kind of experiment: microbe, parasite or virus in culture. The class given is cell-based, yellow fever virus. Conditions: Yellow fever virus, A549.
In another data set the test system is ZIKV. Description: Time-of-addition experiment in infected A549 cells. It is filed as cell-based, Zika virus. As to conditions: temoporfin 90 nM, niclosamide 0.75 μM; viral plaque reduction assay.
Another data set has as its system WNV. Description: microbe, parasite or virus in culture. The class given is cell-based, West Nile virus. As to conditions: West Nile virus, A549.
[9] abbreviates: Table 1, read-out: NS2B-MBP NS3 protease IC50.
Setting [10] is: DENV2, A549, read-out: EC50 (DENV2).
Setting [11] is: NS2B-NS3 SLC signal, read-out: SLC IC50.

Structures can show the parent of a compound that is named as a salt. Where two headings read alike, the source gives them in different places.

Sequence of NS2B-NS3 interactions (Nluc-E66stop/GCN) (P29990 1476-1660 limits assumed): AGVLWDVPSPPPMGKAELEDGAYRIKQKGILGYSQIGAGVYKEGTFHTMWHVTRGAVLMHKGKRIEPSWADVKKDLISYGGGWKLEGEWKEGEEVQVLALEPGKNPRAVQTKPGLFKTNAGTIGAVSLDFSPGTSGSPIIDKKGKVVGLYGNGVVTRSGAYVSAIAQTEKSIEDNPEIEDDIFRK
Sequence of DENV2 His-NS2B/His-MBP-NS3 protease (P29990 1476-1660 limits assumed): as above
Sequence of DENV2 His-MBP-NS3 (P29990 1476-1660 limits assumed): as above

In the case of `Cc1ccc(O)c(-n2nc3ccccc3n2)c1` [2-(2H-Benzotriazol-2-yl)-4 methylphenol], the IC50 (as a rule, the midpoint of a concentration-inhibition curve) in [1] was 7.8 µM.

In data set [1], `c1ccc(CCNc2nc(-c3ccccc3)cs2)cc1` [Fanetizole] returned a half-maximal inhibitory concentration (IC50) of 12.4 µM.

The compound `Oc1ccc(C=Cc2cc(O)cc(O)c2)cc1` [Resveratrol] displayed an IC50 in data set [1] of 9 µM.

In turn, `O=c1c(-c2ccc(O)cc2)coc2cc(O)cc(O)c12` [Genistein] yielded a half-maximal inhibitory concentration (IC50) in [1] of 7.2 µM.

Turning to `CC(C)Oc1ccc2c(=O)c(-c3ccccc3)coc2c1` [Ipriflavone], the concentration for half-maximal inhibition (IC50) in data set [1] amounted to 5.3 µM.

On to `O=C(Nc1ncc([N+](=O)[O-])s1)c1cccs1` [Tenonitrozole], for which, in data set [1], the IC50 is 4.9 µM.

As for `O=C(O)c1cccc(-c2noc(-c3ccccc3F)n2)c1` [Ataluren], the “Therapeutic index (TI) (CC50/EC50)” value with DENV2 [2] was more than 50. For the same compound, the results for the IC50 in data set [3] (setting [9]) and in [1] were 21.6 µM and 0.1 µM, respectively. For the same compound, the CC50 (in general, the concentration at which the toxic effect on the cells reaches its halfway point) at 42 h in [4] (CC50, A549 cells, Table 1) was more than 100 µM. Further, in the data set with DENV2 [5] (setting [10]), the EC50 (usually the concentration needed to bring the measured effect to its halfway point) is less than 2 µM.

In the case of `CCN(CC)c1ccc(C(=C2C=CC(=[N+](CC)CC)C=C2)c2cc(S(=O)(=O)O)ccc2S(=O)(=O)[O-])cc1` [Isosulfan blue], in data set [1] (setting [11]), the IC50 worked out at 12.2 µM.

`CS(=O)(=O)c1ccc(-c2cn3ccccc3n2)cc1` [Zolimidine] showed an IC50 in [1] of 12.1 µM.

As for `Cc1cc2nc3ccc(N(C)C)cc3[s+]c2cc1N` [Toluidine blue], the IC50 in data set [1] (setting [11]) was determined as 14.3 µM.

For the compound `Nc1ccc(/N=N/c2ccccc2)c(N)n1` [Phenazopyridine hydrochloride], the 50% inhibitory concentration (IC50) in [1] was 13.2 µM.

Compound `COc1ccc2nc(NC(=O)Nc3ccccc3)sc2c1` [Frentizole] came in with an IC50 in [1] of 0.38 µM.

`CC(C)CCOC(=O)c1ccc(N(C)C)cc1` [Padimate]: the IC50 in [1] (setting [11]) came out at 14.4 µM.

With `CNC(=O)c1ccccc1Sc1ccc2c(/C=C/c3ccccn3)n[nH]c2c1` [Axitinib], the IC50 in [1] amounted to 5.3 µM.

As to `CC(=O)Oc1ccccc1C(=O)Nc1ncc([N+](=O)[O-])s1` [Nitazoxanide, [2-[(5-nitro-1,3-thiazol-2-yl)carbamoyl]phenyl]acetate], the “Therapeutic index (TI) (CC50/EC50)” value with DENV2 [2] was more than 0. For the same compound, the half-inhibitory concentration (IC50) was found to be 15.9 µM in data set [3] (setting [9]); 15.9 ± 0.9 µM in data set [3] (Table 3, read-out: IC50-pro); 3.4 µM in data set [1]. Further, in the data set with A549 cells, the 50% cytotoxic concentration (CC50) was determined as 60 µM. Moreover, the cytotoxic concentration (CC50) at 42 h in [4] (CC50, A549 cells, Table 1) was more than 100 µM; in data set [4] (CC50, Table 3), 77 ± 7.2 µM. The concentration for a half-maximal effect (EC50) in data set [6] (ZIKV) was 1.48 ± 0.18 µM; in the data set with JEV, 0.39 µM; in the data set on DENV2 [5] (setting [10]), less than 10 µM. The 90% effect level in data set [6] (ZIKV) (EC90) was put at 4 µM. The Kd (in general, the concentration at which binding is half-saturated) in data set [7] (25° C., 1:1 Langmuir binding model, read-out: dissociation constant (KD)) turned out to be 7.3 µM.

Turning to `O=C(Nc1ccc([N+](=O)[O-])cc1Cl)c1cc(Cl)ccc1O` [Niclosamide, 5-chloro-N-(2-chloro-4-nitrophenyl)-2-hydroxybenzamide], the “Therapeutic index (TI) (CC50/EC50)” value in the data set with DENV2 [2] is reported as more than 182. The “binding of FLAG-NS2B to GST-NS3” value in [8] is “significantly decreased the binding”. For the same compound, the “expression of ZIKV NS3 (western blot)” value with ZIKV NS3 expression is “significantly inhibited”. Besides, the IC50 worked out at 12.3 µM in data set [3] (setting [9]); 12.3 ± 0.6 µM in [3] (Table 3, read-out: IC50-pro); 0.7 µM in data set [1]. At DENV2 His-MBP-NS3, the “Tm compared to the DMSO control” value is listed as “increased Tm”. The 50% effective concentration (EC50) was found to be 0.48 ± 0.06 µM in data set [6] (ZIKV); 0.84 ± 0.02 µM in the data set on YFV; 1.02 ± 0.08 µM in the data set with JEV; 0.55 ± 0.05 µM in the data set with DENV2 [5] (DENV2, A549); 0.55 µM in the data set on DENV2 [5] (setting [10]); 0.54 ± 0.17 µM in the data set with WNV (WNV, read-out: EC50). The EC90 (in general, the concentration at which the effect reaches the 90% level) in [6] (ZIKV) worked out at 1.9 µM; in the data set with YFV, 1.9 µM; with JEV it was 2.4 µM; in the data set on DENV2 [5] (DENV2, A549), 2.3 µM; in the data set with WNV (WNV), 2.3 µM. Also, the “effectiveness of addition at 24-hour post-infection versus at the time of infection” value in the data set on ZIKV is listed as “almost equally effective”. This compound also had a dissociation constant (Kd) in [7] of 6.4 µM.

In the case of Amlenasox, the IC50 in data set [1] (setting [11]) came out at 4.7 µM.

In the case of `CN(C)c1ccc2nc3ccc(=[N+](C)C)cc-3sc2c1` [Methylene blue, [7-(dimethylamino)phenothiazin-3-ylidene]-dimethylazanium;chloride], the IC50 in data set [3] (setting [9]) is 41.6 µM; in [3] (Table 3, read-out: IC50-pro) it was 40 µM; in data set [1] it was 5.5 µM. Further, the EC50 in [6] (ZIKV*, without ambient light (in dark)) was 0.28 µM; with DENV2 [5] (setting [10]), less than 2 µM; with WNV, 0.1 µM. The “titer of ZIKV in the absence of light exposure” value in [6] (in dark) is given as “significantly reduced the titer”.

`Nc1ccc(N=Nc2ccccc2)cc1` [4-Aminoazobenzene] yielded a concentration for half-maximal inhibition (IC50) in data set [1] of 12.6 µM.

`Clc1ccccc1-c1nc(-c2ccncc2)no1` [Pifexole] came in with an IC50 in data set [1] of 7.5 µM.
